In US20250002475A1 (EPICS THERAPEUTICS, priority 2023, published 2025) one finds IC50 data, which are given here for 26 molecules.

The subject of one assay is Kasumi-1 cells. The experiment in a line: Kasumi-1 cellular viability assay (ATP-Lite, 72 h). It is filed as cell-based. Particulars: Homo sapiens, ATP-Lite luminescence, % viability relative to DMSO. An outline of the steps:
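Kasumi-1 AML cells, 15000/well in RPMI-1640 with 10% FBS, were exposed to compound titrations (0.1% final DMSO) for 72 h at 37 °C, 5% CO2. ATP-Lite One Step luminescence gave % viability versus DMSO control, and IC50 came from the concentration-response.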

Assay [1] concerns the target T1, recombinant METTL3/METTL14 complex (Homo sapiens, UniProt Q86U44).
T1 construct: purchased Active Motif 311970; host or cells: Sf9 cells
The experiment in a line: METTL3/14 Scintillation Proximity Assay (SPA), RNA methyltransferase activity. The format is biochemical. Particulars: 5.31 nM METTL3/14 complex, 250 nM RNA substrate, 1 μM 3H-SAM, 90 min; for compounds marked * best of the two separated forms.

Another assay relates to Caov-3 cells. Nature of the assay: Caov-3 cellular viability assay (ATP-Lite, 72 h). It is filed as cell-based. Particulars: Homo sapiens, ATP-Lite luminescence, % viability relative to DMSO. A digest of the protocol: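 10000 cells/well treated 72 h at 37 °C, 5% CO2, in RPMI-1640 with 10% FBS and 0.1% DMSO final. Viability by ATP-Lite One Step luminescence. Expressed as % of DMSO control, with IC50 from each compound's concentration-response curve.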

Each structure is given as a SMILES string.

T1 sequence (Q86U44 whole entry): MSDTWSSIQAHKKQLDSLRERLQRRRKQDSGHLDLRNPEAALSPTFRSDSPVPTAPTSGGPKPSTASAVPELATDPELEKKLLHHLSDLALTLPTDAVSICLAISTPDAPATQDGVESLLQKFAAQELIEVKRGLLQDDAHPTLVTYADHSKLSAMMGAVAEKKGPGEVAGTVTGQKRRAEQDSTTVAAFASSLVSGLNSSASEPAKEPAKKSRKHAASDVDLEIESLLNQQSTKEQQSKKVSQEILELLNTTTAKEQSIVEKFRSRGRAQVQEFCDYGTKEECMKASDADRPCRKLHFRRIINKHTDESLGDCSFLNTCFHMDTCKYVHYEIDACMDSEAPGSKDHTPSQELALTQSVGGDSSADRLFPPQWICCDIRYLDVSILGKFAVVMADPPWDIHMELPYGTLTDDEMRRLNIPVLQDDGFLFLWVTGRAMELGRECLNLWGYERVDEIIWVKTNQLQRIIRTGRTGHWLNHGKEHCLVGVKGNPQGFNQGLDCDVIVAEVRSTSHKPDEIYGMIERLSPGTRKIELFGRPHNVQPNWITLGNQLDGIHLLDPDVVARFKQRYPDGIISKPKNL
T1 sequence (Q9HCE5 whole entry partner): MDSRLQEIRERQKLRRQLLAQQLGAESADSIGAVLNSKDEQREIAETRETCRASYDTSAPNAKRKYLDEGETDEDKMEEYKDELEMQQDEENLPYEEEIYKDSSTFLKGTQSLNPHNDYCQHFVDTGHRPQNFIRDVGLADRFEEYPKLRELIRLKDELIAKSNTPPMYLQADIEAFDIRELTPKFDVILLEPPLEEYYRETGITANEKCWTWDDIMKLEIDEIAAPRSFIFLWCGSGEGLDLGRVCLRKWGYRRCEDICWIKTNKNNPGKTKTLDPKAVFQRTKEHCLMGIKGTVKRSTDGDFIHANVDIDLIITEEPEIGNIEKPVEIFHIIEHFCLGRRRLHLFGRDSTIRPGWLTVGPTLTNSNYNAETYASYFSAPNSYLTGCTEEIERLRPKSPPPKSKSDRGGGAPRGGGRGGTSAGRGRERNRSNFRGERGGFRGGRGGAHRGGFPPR

As for `CC(c1cnc(-c2cncc(N3CCCC3)n2)s1)n1ccc(N2CCC[C@@H](NCC3CC3)C2)cc1=O` (stereo partly drawn) [Compound 233, 4-((R)-3-((cyclopropylmethyl)amino)piperidin-1-yl)-1-(1-(2-(6-(pyrrolidin-1-yl)pyrazin-2-yl)thiazol-5-yl)ethyl)pyridin-2(1H)-one], the values for the half-maximal inhibitory concentration (IC50) (in the assay on Kasumi-1 cells; in assay [1]; in the assay on Caov-3 cells) were at most 500 nM, at most 50 nM and at most 500 nM, respectively.
As to `CC(c1cnc(-c2cncc(N3CCCC3)n2)o1)n1ccc(N2CCC[C@@H](NCC3CC3)C2)cc1=O` (single isomer, unassigned) [Compound 242], the half-maximal inhibitory concentration (IC50) with Kasumi-1 cells was at most 500 nM; in assay [1], at most 50 nM; with Caov-3 cells it was at most 500 nM.
As to `COc1cncc(-n2cc(Cn3ccc(N4CCC[C@@H](NCC5CCC5)C4)cc3=O)cn2)c1` [Compound 107, (R)-4-(3-((cyclobutylmethyl)amino)piperidin-1-yl)-1-((1-(5-methoxypyridin-3-yl)-1H-pyrazol-4-yl)methyl)pyridin-2(1H)-one], the half-maximal inhibitory concentration (IC50) was at most 500 nM in the assay on Kasumi-1 cells, at most 50 nM in assay [1] and at most 500 nM in the assay with Caov-3 cells.
As to `CC(NC(=O)c1cc(=O)n2ccccc2n1)c1ccc(N2CCC[C@@H](NCC3CCC3)C2)nn1` (single isomer, unassigned) [Compound 051], the concentration for half-maximal inhibition (IC50) with Kasumi-1 cells was over 5000 nM; in assay [1], at most 50 nM; with Caov-3 cells it was 500 to 5000 nM.
In the case of `CC(C(=O)Nc1cncc(N2CCCC2)c1)n1ccc(N2CCC[C@@H](NCC3CCC3)C2)cc1=O` (stereo partly drawn) [Compound 208, 2-(4-((R)-3-((cyclobutylmethyl)amino)piperidin-1-yl)-2-oxopyridin-1(2H)-yl)-N-(5-(pyrrolidin-1-yl)pyridin-3-yl)propanamide], the IC50 with Kasumi-1 cells was 500 to 5000 nM; in assay [1], at most 50 nM; in the assay with Caov-3 cells, 500 to 5000 nM.
Turning to `c1ncc(C2CC2)cc1-c1nnc(Cc2ccc(N3CCC[C@@H](NCC4CC4)C3)cn2)s1` [Compound 362, (R)-N-(cyclopropylmethyl)-1-(6-((5-(5-cyclopropylpyridin-3-yl)-1,3,4-thiadiazol-2-yl)methyl)pyridin-3-yl)piperidin-3-amine], the IC50 with Kasumi-1 cells was at most 500 nM; in assay [1] it was at most 50 nM; with Caov-3 cells, at most 500 nM.
Turning to `COc1cncc(-c2ncc(Cn3ccc(N4CCC[C@@H](NCC5CCC5)C4)cc3=O)s2)c1` [Compound 097, (R)-4-(3-((cyclobutylmethyl)amino)piperidin-1-yl)-1-((2-(5-methoxypyridin-3-yl)thiazol-5-yl)methyl)pyridin-2(1H)-one], the results for the IC50 (with Kasumi-1 cells; in assay [1]; in the assay on Caov-3 cells) were at most 500 nM, at most 50 nM and at most 500 nM, respectively.
Consider `FC12CC(CN[C@@H]3CCCN(c4ccc(C5(n6cc(-c7cncc(N8CCCC8)n7)nn6)COC5)nc4)C3)(C1)C2` [Compound 308, (R)-N-((3-fluorobicyclo[1.1.1]pentan-1-yl)methyl)-1-(6-(3-(4-(6-(pyrrolidin-1-yl)pyrazin-2-yl)-1H-1,2,3-triazol-1-yl)oxetan-3-yl)pyridin-3-yl)piperdin-3-amine], for which the half-maximal inhibitory concentration (IC50) in the assay on Kasumi-1 cells is at most 500 nM; in assay [1], at most 50 nM; in the assay with Caov-3 cells, at most 500 nM.
Turning to `c1cc(N2CCC[C@@H](NCC3CCC3)C2)ccc1Cn1cc(-c2cncc(N3CC4CC4C3)n2)nn1` (stereo partly drawn) [Compound 288, (3R)-1-(4-((4-(6-(3-azabicyclo[3.1.0]hexan-3-yl)pyrazin-2-yl)-1H-1,2,3-triazol-1-yl)methyl)phenyl)-N-(cyclobutylmethyl)piperidin-3-amine], the IC50 in the assay with Kasumi-1 cells is at most 500 nM; in assay [1], at most 50 nM; in the assay with Caov-3 cells, at most 500 nM.
For `CCN(C)c1cncc(-c2cn(C(C)n3ccc(N4CCC[C@@H](NCC5CCC5)C4)cc3=O)nn2)c1` (single isomer, unassigned) [Compound 151], the results for the IC50 (in the assay on Kasumi-1 cells; in assay [1]; in the assay with Caov-3 cells) were at most 500 nM, at most 50 nM and at most 500 nM, respectively.
Regarding `COc1cc(-c2cn(Cc3ccc(N4CCC[C@@H](NCC(C)(C)C)C4)nn3)nn2)c2cn[nH]c2c1` [Compound 032, (R)-1-(6-((4-(6-methoxy-1H-indazol-4-yl)-1H-1,2,3-triazol-1-yl)methyl)pyridazin-3-yl)-N-neopentylpiperidin-3-amine], the 50% inhibitory concentration (IC50) is 500 to 5000 nM in the assay with Kasumi-1 cells, at most 50 nM in assay [1] and at most 500 nM in the assay with Caov-3 cells.
As to `CN(C)c1cncc(-c2cn(Cc3ccc(N4CCC[C@@H](NCC5CCC5)C4)cn3)nn2)c1` [Compound 139, (R)-5-(1-((5-(3-((cyclobutylmethyl)amino)piperidin-1-yl)pyridin-2-yl)methyl)-1H-1,2,3-triazol-4-yl)-N,N-dimethylpyridin-3-amine], the 50% inhibitory concentration (IC50) in the assay on Kasumi-1 cells was at most 500 nM; in assay [1], at most 50 nM; in the assay with Caov-3 cells, at most 500 nM.
Regarding `CC(n1cc(-c2cc(=O)n3ccccc3n2)nn1)n1ccc(N2CCC[C@@H](NCC3CCC3)C2)cc1=O` (single isomer, unassigned) [Compound 088], the IC50 in the assay on Kasumi-1 cells is 500 to 5000 nM; in assay [1], at most 50 nM; with Caov-3 cells, 500 to 5000 nM.
With `c1ncc(C2CC2)cc1-c1cn(C2(c3ccc(N4CCC[C@@H](NCC5CC5)C4)cn3)COC2)nn1` [Compound 256, (R)-N-(cyclopropylmethyl)-1-(6-(3-(4-(5-cyclopropylpyridin-3-yl)-1H-1,2,3-triazol-1-yl)oxetan-3-yl)pyridin-3-yl)piperidin-3-amine], the IC50 in the assay with Kasumi-1 cells is at most 500 nM; in assay [1], at most 50 nM; in the assay with Caov-3 cells, at most 500 nM.
Regarding `CC(c1cnn(-c2cncc(N(C)C)n2)c1)n1ccc(N2CCC[C@@H](NCC3CC3)C2)cc1=O` (single isomer, unassigned) [Compound 225], the results for the IC50 (in the assay with Kasumi-1 cells; in assay [1]; in the assay on Caov-3 cells) were at most 500 nM, at most 50 nM and at most 500 nM, respectively.
For the molecule `COC1CN(c2cncc(-c3cn(C(C)n4ccc(N5CCC[C@@H](NCC6CCC6)C5)cc4=O)nn3)c2)C1` (single isomer, unassigned) [Compound 199], the values for the IC50 (in the assay with Kasumi-1 cells; in assay [1]; with Caov-3 cells) were at most 500 nM, at most 50 nM and at most 500 nM, respectively.
For `c1nnc(-c2cn(C3(c4ccc(N5CCC[C@@H](NCC6CC6)C5)cn4)COC3)nn2)cc1N1CCCC1` [Compound 202, (R)-N-(cyclopropylmethyl)-1-(6-(3-(4-(5-(pyrrolidin-1-yl)pyridazin-3-yl)-1H-1,2,3-triazol-1-yl)oxetan-3-yl)pyridin-3-yl)piperidin-3-amine], the IC50 in the assay with Kasumi-1 cells was at most 500 nM; in assay [1], at most 50 nM; in the assay on Caov-3 cells, at most 500 nM.
`FC1(F)CCN(c2cncc(-c3cn(C4(c5ccc(N6CCC[C@@H](NCC7CC7)C6)cn5)COC4)nn3)n2)C1` [Compound 215, (R)-N-(cyclopropylmethyl)-1-(6-(3-(4-(6-(3,3-difluoropyrrolidin-1-yl)pyrazin-2-yl)-1H-1,2,3-triazol-1-yl)oxetan-3-yl)pyridin-3-V)piperidin-3-amine]: the IC50 is at most 500 nM in the assay on Kasumi-1 cells, at most 50 nM in assay [1] and at most 500 nM in the assay on Caov-3 cells.
Turning to `COc1cncc(-c2cn(C(C)n3ccc(N4CCC[C@@H](NCC5CCC5)C4)cc3=O)nn2)c1` (single isomer, unassigned) [Compound 055], the IC50 with Kasumi-1 cells was at most 500 nM; in assay [1] it was at most 50 nM; with Caov-3 cells, at most 500 nM.
For `CC(n1cc(-c2cncc(N3CC[C@@H](F)C3)n2)nn1)n1ccc(N2CCC[C@@H](NCC3CC3)C2)cc1=O` (single isomer, unassigned) [Compound 245], the IC50 is at most 500 nM in the assay on Kasumi-1 cells, at most 50 nM in assay [1] and at most 500 nM in the assay on Caov-3 cells.
On to `CC(n1cc(-c2cncc(N3CC4(COC4)C3)c2)nn1)n1ccc(N2CCC[C@@H](NCC3CCC3)C2)cc1=O` (single isomer, unassigned) [Compound 191], for which the IC50 in the assay on Kasumi-1 cells is 500 to 5000 nM; in assay [1], at most 50 nM; with Caov-3 cells, at most 500 nM.
In the same order, the values of `COc1cncc(-c2cn(C3(c4ccc(N5CCC[C@@H](NCC6CC6)C5)cn4)COC3)nn2)c1` [Compound 249, (R)-N-(cyclopropylmethyl)-1-(6-(3-(4-(5-methoxypyridin-3-yl)-1H-1,2,3-triazol-1-yl)oxetan-3-yl)pyridin-3-yl)piperidin-3-amine] are at most 500 nM, at most 50 nM and at most 500 nM.
In the same order, the values of `CC(c1cnn(-c2cncc(N3CCCC3)c2)c1)n1ccc(N2CCC[C@@H](NCC3CC3)C2)cc1=O` (single isomer, unassigned) [Compound 253] are at most 500 nM, at most 50 nM and at most 500 nM.
With `c1ncc(N2CCCC2)cc1-c1cn(C2(c3ccc(N4CCC[C@@H](NCC5CC5)C4)cn3)COC2)nn1` [Compound 194, (R)-N-(cyclopropylmethyl)-1-(6-(3-(4-(5-(pyrrolidin-1-yl)pyridin-3-yl)-1H-1,2,3-triazol-1-yl)oxetan-3-yl)pyridin-3-yl)piperidin-3-amine], the half-maximal inhibitory concentration (IC50) was at most 500 nM with Kasumi-1 cells, at most 50 nM in assay [1] and at most 500 nM in the assay with Caov-3 cells.
For `CCN(C)c1cncc(-c2cn(C(C)n3ccc(N4CCC[C@@H](NCC5CC5)C4)cc3=O)nn2)c1` (stereo partly drawn) [Compound 203], the IC50 in the assay on Kasumi-1 cells was at most 500 nM; in assay [1], at most 50 nM; in the assay with Caov-3 cells, at most 500 nM.
As for `COc1cc(-c2cn(Cc3ccc(N4CCC[C@@H](NCC5CCC5)C4)cc3)nn2)c2cn[nH]c2c1` [Compound 123, (R)-N-(cyclobutylmethyl)-1-(4-((4-(6-methoxy-1H-indazol-4-yl)-1-1,2,3-triazol-1-yl)methyl)phenyl)piperidin-3-amine], the values for the IC50 (in the assay on Kasumi-1 cells; in assay [1]; with Caov-3 cells) were at most 500 nM, at most 50 nM and at most 500 nM, respectively.

Usually IC50 stands for the midpoint of a concentration-inhibition curve.
